Assay results taken from the NIST ThermoML archive (doi:10.1016/j.fluid.2015.10.044).
Numbers after ± are expanded uncertainties.

Details: Pendant drop shape

| Structure (SMILES) | surface tension liquid-gas (298.1 K) | surface tension liquid-gas (318 K) | surface tension liquid-gas (343 K) | surface tension liquid-gas (328 K) | surface tension liquid-gas (338.5 K) | surface tension liquid-gas (342.9 K) | surface tension liquid-gas (307.9 K) | surface tension liquid-gas (318.1 K) | further results |
| --- | --- | --- | --- | --- | --- | --- | --- | --- | --- |
| CCn1cc[n+](C)c1.N#C[B-](C#N)(C#N)C#N [1-ethyl-3-methylimidazolium tetracyanoborate] | 49.1 ± 0.7 mN/m | 47.4 ± 0.7 mN/m | 45.4 ± 0.7 mN/m | – | – | – | – | – | surface tension liquid-gas (307.8 K): 48.3 ± 0.7 mN/m; surface tension liquid-gas (328.7 K): 46.6 ± 0.7 mN/m; surface tension liquid-gas (338.8 K): 45.8 ± 0.7 mN/m |
| CCCCCCn1cc[n+](C)c1.N#C[B-](C#N)(C#N)C#N [1-hexyl-3-methylimidazolium tetracyanoborate] | – | 40 ± 0.6 mN/m | – | 39.2 ± 0.6 mN/m | 38.4 ± 0.6 mN/m | 38.2 ± 0.6 mN/m | – | – | surface tension liquid-gas (298.6 K): 41.5 ± 0.6 mN/m; surface tension liquid-gas (308.4 K): 40.8 ± 0.6 mN/m |
| CCCCCCn1cc[n+](C)c1.N#CN=C=[N-] [1-hexyl-3-methylimidazolium dicyanamide] | – | – | – | – | 40.5 ± 0.6 mN/m | – | 42.2 ± 0.6 mN/m | – | surface tension liquid-gas (298 K): 43 ± 0.6 mN/m; surface tension liquid-gas (318.4 K): 41.6 ± 0.6 mN/m; surface tension liquid-gas (328.2 K): 41 ± 0.6 mN/m; surface tension liquid-gas (342.7 K): 40.2 ± 0.6 mN/m |
| CCCCn1cc[n+](C)c1.N#C[S-] [1-butyl-3-methylimidazolium thiocyanate] | 44.6 ± 0.7 mN/m | – | – | – | 41.9 ± 0.6 mN/m | 41.6 ± 0.6 mN/m | – | 43 ± 0.6 mN/m | surface tension liquid-gas (308.2 K): 43.5 ± 0.7 mN/m; surface tension liquid-gas (328.3 K): 42.4 ± 0.6 mN/m |
| CCCCn1cc[n+](C)c1.N#CN=C=[N-] [1-butyl-3-methylimidazolium dicyanamide] | – | – | – | – | – | 47.5 ± 0.7 mN/m | 50.3 ± 0.7 mN/m | 49.7 ± 0.7 mN/m | surface tension liquid-gas (298.4 K): 50.6 ± 0.7 mN/m; surface tension liquid-gas (328.4 K): 48.6 ± 0.7 mN/m; surface tension liquid-gas (339 K): 48.1 ± 0.7 mN/m |
| CCn1cc[n+](C)c1.N#C[C-](C#N)C#N [1-ethyl-3-methyl-1H-imidazolium tricyanomethanide] | – | – | 47.9 ± 0.7 mN/m | 49.1 ± 0.7 mN/m | – | – | – | – | surface tension liquid-gas (298.3 K): 51.1 ± 0.7 mN/m; surface tension liquid-gas (308.1 K): 50.7 ± 0.7 mN/m; surface tension liquid-gas (317.9 K): 49.9 ± 0.7 mN/m; surface tension liquid-gas (338.9 K): 48.5 ± 0.7 mN/m |
